Measurements as given in patent US5041447A, “Oxetanocin-related compounds and pharmaceutical compositions containing them” (priority 1988, dated 1991).
Converted amounts (≈) assume the structure as drawn.

Assays:
[1] = test system: HIV (human immunodeficiency virus); assay: Anti-HIV activity: development of virus antigen in HIV-infected MT-4 cells (indirect fluorescent antibody method); type: cell-based; settings: 4 days, DMSO only 80 to 90%
Procedure: Anti-HIV (human immunodeficiency virus) activity
MT-4 cell (about 100,000 cells/ml) was added into a 24 well tray, and then 100 microliters of a solution containing a predetermined quantity of a compound of this invention was added. After culturing it at 37° C. for 5 hours in 5% (v/v) carbon dioxide incubator, 10^3 to 10^4 infection units of HIV was added and cultured for 4 days. Then, a part of the cultured fluid was coated onto a slide glass and immobilized with acetone, after which development of virus antigen was observed by indirect fluorescent antibody method.
As the primary antibody of the fluorescent antibody method, a serum of AIDS patient was used. As its secondary antibody, FITC-labelled […] was used.

[2] = test system: cytomegalovirus (A0169 strain); assay: Anti-cytomegalovirus activity: plaque formation in human fetal fibroblasts; type: cell-based; settings: Human betaherpesvirus 5, Fibroblast, 240 h, 100 PFU, 37° C., 10 days
Procedure: Anti-cytomegalovirus activity was determined in the following manner. Thus, a 35 mm.phi. dish containing a single layer of human fetal fibroblasts was infected with 100 PFU (plaque forming units) of cytomegalovirus (A0169 strain). After adsorption for one hour, a medium (0.5% agarose, 2% fetal calf serum) containing a varied concentration of the compound of this invention was superposed thereon, and the whole was cultured at 37° C. for 10 days in 5% (v/v) carbon dioxide incubator, after which the formation of plaque was measured. The results are shown in Table 3 in terms of 50% inhibitory value (IC50).

Compound	Development of virus antigen (%) ([1]; 3 μg/ml)	Development of virus antigen (%) ([1]; 10 μg/ml)	Development of virus antigen (%) ([1]; 100 μg/ml)	IC50 [2] [µg/mL]
Nc1ncnc2c1ncn2[C@H]1C[C@@H](CO)O1 [Compound No. 1]	0.1	< 0.1	< 0.1	–
[N-]=[N+]=NC[C@H]1[C@H](n2cnc3c(N)ncnc32)O[C@@H]1CO [Compound No. 2]	15	10	< 0.1	–
Nc1ncnc2c1ncn2[C@@H]1O[C@H](CO)[C@@H]1O [Compound No. 3]	1	0.1	< 0.1	–
C=C1[C@H](n2cnc3c(N)ncnc32)O[C@@H]1CO [Compound No. 4]	10	3	< 0.1	–
CCCCC(=O)OC[C@H]1O[C@@H](n2cnc3c(N)ncnc32)[C@@H]1CO [Compound No. 8]	5	3	< 0.1	–
CCCCCCCCCCCCCCCC(=O)OC[C@H]1O[C@@H](n2cnc3c(N)ncnc32)[C@@H]1CO [Compound No. 9]	7	3	< 0.1	1.7 (≈ 3.47 µM)
Nc1ncnc2c1ncn2[C@@H]1O[C@H](CO)[C@H]1F [Compound No. 10]	> 90	50	< 0.1	–
[N-]=[N+]=N[C@H]1[C@H](n2cnc3c(N)ncnc32)O[C@@H]1CO [Compound No. 11]	> 90	75	< 0.1	–
O=c1[nH]cnc2c1ncn2[C@H]1C[C@@H](CO)O1 [Compound No. 13]	< 0.1	< 0.1	< 0.1	–
CCCCC(=O)OC[C@H]1O[C@@H](n2cnc3c(=O)[nH]c(N)nc32)[C@@H]1CO [Compound No. 14]	–	–	–	> 5
CCCCC(=O)OC[C@H]1O[C@@H](n2cnc3c(N)nc(N)nc32)[C@@H]1CO [Compound No. 15]	–	–	–	> 5
Nc1ncnc2c1ncn2[C@@H]1O[C@H](CO)[C@H]1N [Compound No. 16]	17	6	< 0.1	–
O=c1[nH]cnc2c1ncn2[C@@H]1O[C@H](CO)[C@H]1COS(=O)(=O)O [Compound No. 17]	60	10	< 0.1	–
